Experimental data reported in article PMC10600239, “Selective MCL-1 inhibitor ABBV-467 is efficacious in tumor models but is associated with cardiac troponin increases in patients” (Communications Medicine, 2023).
Values joined by “and” are separate entries in the source; they are usually repeats but may differ in a detail not shown here. Equal entries are not always repeated. Where two headings read alike, the source gives them in different places.

What was measured:
[1] = target: human MCL-1 (Homo sapiens, UniProt Q07820); assay: Time-resolved FRET binding assay
Procedure: Test compounds were serially diluted in DMSO starting at […] (20× starting concentration; 100% DMSO followed by a 1:10 dilution of the compound DMSO plate into assay buffer); 10 µL of the compound in 10% DMSO was then transferred into a 384-well plate (low-volume Corning #3673 assay plate). Glutathione S-transferase (GST)-tagged recombinant BCL-2, BCL-XL, MCL-1, BCL-W, or BCL2-A1 protein (1 nM each) were mixed with 100 nM Oregon Green™-labeled f-BAK peptide probe and 1 nM Tb-labeled anti-GST antibody were mixed. Then 10 µL of a 2× protein/probe/antibody mix was added to each well of increasing concentrations of test compound in assay buffer (20 mM potassium phosphate, pH 7.6, 50 mM NaCl, 1 mM ethylenediaminetetraacetic acid disodium salt dihydrate, 0.05% pluronic acid F-68, 1 mM DL-dithiothreitol) at room temperature (final concentrations listed in Supplementary Table S2). The samples were then mixed on a shaker for 1 min and incubated for an additional 1 h at room temperature. For each assay plate, a probe/antibody and protein/antibody/probe mixture were included as a negative and a positive control, respectively. Fluorescence was measured on the EnVision™ (Perkin Elmer) using a 340/35-nm excitation filter and 520/525- (F-Bak) and 495/510-nm (Tb-labeled anti-glutathione S-transferase [GST] antibody) emission filters. Dissociation constants were determined using Wang’s equation[35]. The time-resolved FRET assay can be performed in the presence of varying concentrations of human serum to determine apparent half-maximal inhibitory concentration after serum protein binding.

[2] = system: H929 cells; assay: In vitro cell viability assay (CellTiter-Glo); type: cell-based, human
Procedure: All cell lines were grown and treated in RPMI 1640 or Dulbecco’s modified Eagle medium (Sigma, St. Louis, MO) supplemented with 10% fetal bovine serum (Gibco) or 10% human serum (Sigma) and maintained in a humidified incubator at 5% CO2 and 37 °C. DLD-1, MV4-11, NCI-H929 (all ATCC, Manassas, VA, USA) and AMO-1 (DSMZ, Braunschweig, Germany) cells were plated 4000 cells per well in 384-well tissue culture plates and treated with compounds of interest for 24 h at 37 °C, 5% CO2 humidified incubator. Each concentration was tested in duplicate at least 3 separate times. Adherent cells were allowed to adhere overnight prior to treatment. Alternatively, AMO-1 or NCI-H929 cells were treated with ABBV-467 for the indicated contact times (1–24 h) at 37 °C in a 5% CO2 humidified incubator and washed 3 times with compound-free media prior to incubation for the remainder of a 24-h treatment period. Cell viability was subsequently determined using CellTiter-Glo (Promega, Madison, WI, USA) according to the manufacturer’s instructions.
For in vitro viability assays, mean EC50 and EC90 values were determined from the resulting dose-response curves from at least 3 independent experiments, and depict the mean ± standard error of the mean.
Fig. 2 Apoptosis induced by ABBV-467 is mechanism based and induces cell death in MCL-1-dependent cell lines after short target engagement periods. H929 cells were treated with ABBV-467 in the presence or absence of the pan-caspase inhibitor z-VAD-fmk (50 µM) and the impact on caspase-3/7 activation (a), mitochondrial membrane potential (ΔΨm; b), and apoptosis (c) determined. Alternatively, BAK-deficient SKBR3 cells were treated with ABBV-467 for 24 h and the impact on cell viability compared with the parental cell line, determined by CellTiter-Glo. Inset depicts a western blot of BAK and BAX expression in SKBR3 cell variants using GAPDH as a loading control. Each of the 3 proteins were probed on separate blots (d). Data in (a–d) are presented as the mean ± standard error of the mean. H929 and AMO-1 cells were treated with ABBV-467 at the indicated concentrations and the impact on caspase-3/7 activation and viability (DRAQ7-positive) cells determined over time by Incucyte®. Data are presented as the mean ± standard deviation (e). H929 or AMO-1 cells were cultured in media containing 10% human serum and treated with ABBV-467 for the indicated contact times. Cells were subsequently washed 3 times with drug-free media and incubated in drug-free media for the remainder of the 24-h treatment period at 37 °C before cell viability was determined by CellTiter-Glo. Mean EC50 and EC90 values were determined from the resulting dose-response curves from at least 3 independent experiments, each assessed in quadruplicate, and depict the mean ± standard error of the mean. Presented ABBV-467 dose-response curves in H929 and AMO-1 cells were compiled from at least 3 independent experiments (f).

[3] = 4-week (5-dose) IV infusion toxicity study with 4-week recovery
Procedure: range-finding studies, and 4-we ek (5-dose) with recovery GLP studies in rats and dogs. For all studies, test item was
administered once weekly by 30 -minute IV infusion. Standard GLP endpoints were assessed including in- life (body weights,
clinical observations, eye exams), electro cardiograms (dog s only), clinical pathology (hematology, clinical chemistry, and
coagulation) and anatomic pathology (macroscopic and mic roscopic observations and organ weights).
Study design was generally in compliance with FDA Redbook
Guidance IV.C. 3.a. and IV.C.3. b. sections on short-term toxicity studies with rodents and non- rodents, respectively (viz.
Studies were appr oved by the animal use committee of Charles River Laboratories, Mattawan, MI. No animals or
data were excluded from analysis. Healthy dogs, as determined by veterinary physical examination and clinical pathology,
were randomized between dose groups using laboratory information management softw are.

human MCL-1, sequence (Q07820 whole entry): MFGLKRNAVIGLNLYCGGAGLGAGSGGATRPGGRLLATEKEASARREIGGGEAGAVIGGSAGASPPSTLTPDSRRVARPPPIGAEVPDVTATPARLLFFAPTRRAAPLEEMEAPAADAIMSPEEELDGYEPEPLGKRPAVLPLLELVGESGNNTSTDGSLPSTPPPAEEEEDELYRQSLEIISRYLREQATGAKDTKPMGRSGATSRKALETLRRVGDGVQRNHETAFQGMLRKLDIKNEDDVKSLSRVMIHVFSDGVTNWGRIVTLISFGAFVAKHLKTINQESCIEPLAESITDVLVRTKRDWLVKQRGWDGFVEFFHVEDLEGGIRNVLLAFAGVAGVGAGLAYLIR

Cc1c(Cl)c2c(Cl)c(C)c1-c1c(-c3ccc(F)cc3)sc3ncnc(c13)O[C@@H](C(=O)O)Cc1cc(ccc1OCc1ccnc(-c3ccc(OC[C@H]4COCCO4)cc3)n1)OC[C@@H](CN1CCN(C)CC1)O2 [ABBV-467]
Ki ([1]; TR-FRET, arithmetic mean, read-out: Arithmetic Mean Ki, MCL1): < 0.01 nM | Ki ([1]; TR-FRET, individual determinations, read-out: Individual Ki, MCL1): < 0.01 nM | Ki ([1]; read-out: TR-FRET, Ki, nM MCL-1): < 0.01 nM | EC50 ([2]; Homo sapiens, NCI-H929, 10% human serum, contact time 1 hr, washout, viability at 24 h, read-out: H929 Mean EC50): 84.5 nM | EC50 ([2]; Homo sapiens, NCI-H929, 10% human serum, contact time 2 hr, washout, viability at 24 h, read-out: H929 Mean EC50): 61.8 nM | EC90 ([2]; Homo sapiens, NCI-H929, 10% human serum, contact time 2 hr, washout, viability at 24 h, read-out: H929 Mean EC90): 236 nM | EC50 ([2]; Homo sapiens, NCI-H929, 10% human serum, contact time 4 hr, washout, viability at 24 h, read-out: H929 Mean EC50): 18.9 nM | EC50 ([2]; Homo sapiens, NCI-H929, 10% human serum, contact time 6 hr, washout, viability at 24 h, read-out: H929 Mean EC50): 11.7 nM | EC90 ([2]; Homo sapiens, NCI-H929, 10% human serum, contact time 6 hr, washout, viability at 24 h, read-out: H929 Mean EC90): 108 nM | EC50 ([2]; Homo sapiens, NCI-H929, 24 h, 10% human serum, contact time 24 hr, read-out: H929 Mean EC50): 1.5 nM | EC90 ([2]; Homo sapiens, NCI-H929, 24 h, 10% human serum, contact time 24 hr, read-out: H929 Mean EC90): 5.6 nM | EC50 ([2]; Homo sapiens, NCI-H929, 24 h, read-out: H929 EC50 (nM, 10% FBS), 10% FBS, 24 h continuous treatment): 0.4 nM | EC50 ([2]; Homo sapiens, NCI-H929, NCI-H929, arithmetic mean, read-out: Arithmetic Mean EC50 µM): 0.468 nM | EC90 ([2]; Homo sapiens, NCI-H929, read-out: H929 Mean EC90, 10% human serum, contact time 1 hr, washout, viability at 24 h): 458 nM | EC90 ([2]; Homo sapiens, NCI-H929, read-out: H929 Mean EC90, 10% human serum, contact time 4 hr, washout, viability at 24 h): 133 nM | EC50 ([2]; NCI-H929, individual determinations, read-out: Individual EC50): 0.595 nM and 0.693 nM and 0.692 nM and 0.364 nM and 0.531 nM and 0.29 nM and 0.314 nM and 0.373 nM and 0.366 nM and 0.36 nM and 0.313 nM and 0.717 nM and 0.472 nM | EC50 ([2]; read-out: H929 EC50 (nM, 10% FBS), 10% FBS, 24 h continuous treatment): 0.47 nM | mortality ([3]; beagle dog, 10 mg/kg after 1 or 2 doses (days 3–10)): Mortality | reversibility of toxicities ([3]; dogs, after a 4-week recovery period): partially or fully reversible | primary target organs of apoptosis/single-cell necrosis ([3]; dogs, once-weekly dosing): pancreas, liver, gastrointestinal tract, and the hematopoietic system | impact on cardiovascular endpoints (anatomic, clinical pathology, and/or function) ([3]; multidose GLP toxicity study, dogs): No direct impact
